Reference: patent publication US4196288A, “Ergoline derivatives and a process for their preparation” (Societa Farmaceutici Italia S.p.A., priority 1976, dated 1980)
Like-named read-outs stand apart in the source and are kept apart here.

Key:
[1] = tested on: nidation; test: Nidation inhibition test in rats (anti-prolactin activity; absence of implantation sites); format: in vivo, rat (Sprague-Dowley); settings: Rattus norvegicus
Source text: Prolactin is considered to be the only hypophysial hormone involved in the maintenance of the first part of pregnancy in rats.
For the assessment of the anti-prolactin activity, the nidation inhibition test (M.C. Shelesnyak, Amer. J. Physiol., 180, 47, 1955) in rats was employed. For the ergoline derivatives this test is considered to be correlated with prolactin-inhibiting ability (K. Rezabek et al., J. Pharm. Sci., 64, 1045, 1976).
Adult female rats, of the Sprague-Dowley strain, in proestrus were mated with fertile males and their vaginal smears were examined the next morning. The presence of spermatozoa was considered evidence of impregnation and onset of pregnancy (day 1).
The compounds to be tested were administered orally or subcutaneously to groups of from six to eight rats on day 3. On day 14, the animals were sacrificed and the uterus was examined for the presence of implantation sites. The absence of implantation sites was taken as the criterion of anti-prolactin activity.
Several doses were tested for the ED50 evaluation.
As the reference standard Bromocriptine was used, this being well known both for its anti-nidation (E. Fluckiger and H. R. Wagner, Experientia, 24, 1130, 1968) and its anti-prolactin activity (C. L. Brooks and C. W. Welsch, Proc. Soc. Exp. Bio. Med., 146, 863, 1974).

[2] = Emetic activity in dogs (intravenous); settings: dog, in vivo, male beagle dogs, i.v., observed for 1 hour after treatment, read-out: ≅ED50, emetic activity in dogs
Source text: The emetic activity of some of the compounds was investigated by intravenous administration to male beagle dogs weighing 15-20 kg. […] Five to six animals per dose were employed for the ED50 evaluation.

[3] = sc, rats, s.c., dosed on day 3, uterus examined on day 14, read-out: ≅ED50, nidation inhibition in rats (subcutaneous treatment)
[4] = rats, os (oral), dosed on day 3, uterus examined on day 14, read-out: ≅ED50, nidation inhibition in rats (oral treatment)

SMILES	ED50 ([1]; po, read-out: ≅ED50, nidation inhibition in rats (oral treatment))	ED50 ([1]; sc, read-out: ≅ED50, nidation inhibition in rats (subcutaneous treatment))	TD50 at 1 h [2]	ED50 [1, 3]	ED50 [1, 4]
CC(C)C[C@H]1C(=O)N2CCC[C@H]2[C@]2(O)O[C@](NC(=O)[C@@H]3C=C4c5cccc6[nH]c(Br)c(c56)C[C@H]4N(C)C3)(C(C)C)C(=O)N12 [Bromocriptine, reference compound]	~8 mg/kg	~1 mg/kg	~0.007 mg/kg	–	–
CN1CC(C(=O)CN2CCCCC2)C[C@@H]2c3cccc4[nH]cc(c34)C[C@H]21 (stereo partly shown) [Compound 611, 6-Methyl-8-piperidinoacetylergoline]	–	–	–	~1 mg/kg	~0.5 mg/kg
CN1CC(C(=O)COC(=O)c2cncc(Br)c2)C[C@@H]2c3cccc4[nH]cc(c34)C[C@H]21 (stereo partly shown) [Compound 613, 6-Methyl-8-(5'-bromonicotinoyloxyacetyl)ergoline]	–	–	~0.045 mg/kg	~0.5 mg/kg	~0.5 mg/kg
CN1CC(C(=O)CO)C[C@@H]2c3cccc4[nH]cc(c34)C[C@H]21 (stereo partly shown) [Compound 615, 6-Methyl-8-hydroxyacetylergoline]	–	–	~0.025 mg/kg	~0.5 mg/kg	~0.5 mg/kg
CN1CC(C(=O)COC(=O)c2ccncc2)C[C@@H]2c3cccc4[nH]cc(c34)C[C@H]21 (stereo partly shown) [Compound 991, 8-Isonicotinoyloxyacetyl-6-methylergoline]	–	–	–	~2 mg/kg	~2 mg/kg
CCCCCC(=O)OCC(=O)C1C[C@@H]2c3cccc4[nH]cc(c34)C[C@H]2N(C)C1 (stereo partly shown) [Compound 992, 8-Caproyloxyacetyl-6-methylergoline]	–	–	–	~1 mg/kg	~0.5 mg/kg
CN1CC(C(=O)COC(=O)c2ccccc2)C[C@@H]2c3cccc4[nH]cc(c34)C[C@H]21 (stereo partly shown) [Compound 1000, 8-Benzoyloxyacetyl-6-methylergoline]	–	–	–	~1 mg/kg	~0.5 mg/kg
CN1CC(C(=O)COC(=O)C(C)(C)C)C[C@@H]2c3cccc4[nH]cc(c34)C[C@H]21 (stereo partly shown) [Compound 1011, 8-Pivaloyloxyacetyl-6-methylergoline]	–	–	–	~1 mg/kg	~0.5 mg/kg
CN1CC(C(=O)COC(=O)c2cccnc2)C[C@@H]2c3cccc4[nH]cc(c34)C[C@H]21 (stereo partly shown) [Compound 1012, 8-Nicotinoyloxyacetyl-6-methylergoline]	–	–	–	~1 mg/kg	~1 mg/kg
COc1cccc(OC)c1C(=O)OCC(=O)C1C[C@@H]2c3cccc4[nH]cc(c34)C[C@H]2N(C)C1 (stereo partly shown) [Compound 1013, 8-(2',6'-dimethoxybenzoyloxyacetyl)-6-methylergoline]	–	–	–	~1 mg/kg	~0.5 mg/kg
CN1CCN(CC(=O)C2C[C@@H]3c4cccc5[nH]cc(c45)C[C@H]3N(C)C2)CC1 (stereo partly shown) [Compound 1014, 6-Methyl-8-(4'-methylpiperazino)acetylergoline]	–	–	–	~1 mg/kg	~1 mg/kg
